#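 Following 48 hours of exposure in 96-well plates, responses at five concentrations were used to interpolate endpoints linearly. Here, GI50 denotes the concentration required for 50% inhibition of growth. The concentration for full growth arrest is given as TGI.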
# How the values were obtained:
# Assay in all cases: NCI anticancer screen, dose series, 48 h
# 786-0 renal = tested on: 786-0 renal
# A498 renal = tested on: A498 renal
# A549 NSCLC = tested on: A549 NSCLC
# ACHN renal = tested on: ACHN renal
# BT-549 breast = tested on: BT-549 breast
# CAKI-1 renal = tested on: CAKI-1 renal
# CCRF-CEM leukemia = tested on: CCRF-CEM leukemia
# COLO 205 colon = tested on: COLO 205 colon
# DU-145 prostate = tested on: DU-145 prostate
# HCC-2998 colon = tested on: HCC-2998 colon
# HCT-116 colon = tested on: HCT-116 colon
# HCT-15 colon = tested on: HCT-15 colon
# HL-60(TB) leukemia = tested on: HL-60(TB) leukemia
# HOP-62 NSCLC = tested on: HOP-62 NSCLC
# HS 578T breast = tested on: HS 578T breast
# HT29 colon = tested on: HT29 colon
# IGROV1 ovarian = tested on: IGROV1 ovarian
# K-562 leukemia = tested on: K-562 leukemia
# KM12 colon = tested on: KM12 colon
# M14 melanoma = tested on: M14 melanoma
# MALME-3M melanoma = tested on: MALME-3M melanoma
# MCF7 breast = tested on: MCF7 breast
# MDA-MB-231 breast = tested on: MDA-MB-231 breast
# MDA-MB-435 = tested on: MDA-MB-435
# MOLT-4 leukemia = tested on: MOLT-4 leukemia
# NCI-H226 lung = tested on: NCI-H226 lung
# NCI-H23 lung = tested on: NCI-H23 lung
# NCI-H460 lung = tested on: NCI-H460 lung
# NCI-H522 lung = tested on: NCI-H522 lung
# NCI/ADR-RES ovarian = tested on: NCI/ADR-RES ovarian
# OVCAR-3 ovarian = tested on: OVCAR-3 ovarian
# OVCAR-4 ovarian = tested on: OVCAR-4 ovarian
# OVCAR-5 ovarian = tested on: OVCAR-5 ovarian
# OVCAR-8 ovarian = tested on: OVCAR-8 ovarian
# PC-3 prostate = tested on: PC-3 prostate
# RPMI-8226 leukemia = tested on: RPMI-8226 leukemia
# RXF 393 renal = tested on: RXF 393 renal
# SF-268 CNS = tested on: SF-268 CNS
# SF-295 CNS = tested on: SF-295 CNS
# SF-539 CNS = tested on: SF-539 CNS
# SK-MEL-28 melanoma = tested on: SK-MEL-28 melanoma
# SK-MEL-5 melanoma = tested on: SK-MEL-5 melanoma
# SK-OV-3 ovarian = tested on: SK-OV-3 ovarian
# SN12C renal = tested on: SN12C renal
# SNB-19 CNS = tested on: SNB-19 CNS
# SNB-75 CNS = tested on: SNB-75 CNS
# SR leukemia = tested on: SR leukemia
# SW-620 colon = tested on: SW-620 colon
# T-47D breast = tested on: T-47D breast
# TK-10 renal = tested on: TK-10 renal
# UACC-257 melanoma = tested on: UACC-257 melanoma
# UACC-62 melanoma = tested on: UACC-62 melanoma
# UO-31 renal = tested on: UO-31 renal
structure (smiles),measurement,setting,value
O=c1ncc(-c2ccc(C(F)(F)F)cc2)c(NC2CCCCCC2)[nH]1,GI50,786-0 renal,23.6 µM
same,TGI,786-0 renal,52.4 µM
same,GI50,A498 renal,16.1 µM
same,TGI,A498 renal,34 µM
same,GI50,A549 NSCLC,25.5 µM
same,TGI,A549 NSCLC,> 100 µM
same,GI50,ACHN renal,30.9 µM
same,TGI,ACHN renal,> 100 µM
same,GI50,BT-549 breast,19.5 µM
same,TGI,BT-549 breast,39 µM
same,GI50,CAKI-1 renal,18.7 µM
same,TGI,CAKI-1 renal,48.4 µM
same,GI50,CCRF-CEM leukemia,19.7 µM
same,TGI,CCRF-CEM leukemia,48 µM
same,GI50,COLO 205 colon,19.6 µM
same,TGI,COLO 205 colon,34.7 µM
same,GI50,DU-145 prostate,31.6 µM
same,TGI,DU-145 prostate,98.1 µM
same,GI50,HCC-2998 colon,20 µM
same,TGI,HCC-2998 colon,35.9 µM
same,GI50,HCT-116 colon,16.8 µM
same,TGI,HCT-116 colon,33.6 µM
same,GI50,HCT-15 colon,22.1 µM
same,TGI,HCT-15 colon,64.6 µM
same,GI50,HL-60(TB) leukemia,21 µM
same,TGI,HL-60(TB) leukemia,46.4 µM
same,GI50,HOP-62 NSCLC,20.3 µM
same,TGI,HOP-62 NSCLC,36.8 µM
same,GI50,HS 578T breast,17.9 µM
same,TGI,HS 578T breast,53.9 µM
same,GI50,HT29 colon,21.5 µM
same,TGI,HT29 colon,39 µM
same,GI50,IGROV1 ovarian,19.1 µM
same,TGI,IGROV1 ovarian,40.2 µM
same,GI50,K-562 leukemia,24.2 µM
same,TGI,K-562 leukemia,60.1 µM
same,GI50,KM12 colon,19.9 µM
same,TGI,KM12 colon,44.3 µM
same,GI50,M14 melanoma,20.4 µM
same,TGI,M14 melanoma,45.8 µM
same,GI50,MALME-3M melanoma,17.2 µM
same,TGI,MALME-3M melanoma,33.7 µM
same,GI50,MCF7 breast,16.2 µM
same,TGI,MCF7 breast,56.4 µM
same,GI50,MDA-MB-231 breast,16.6 µM
same,TGI,MDA-MB-231 breast,38.1 µM
same,GI50,MDA-MB-435,15.6 µM
same,TGI,MDA-MB-435,34.4 µM
same,GI50,MOLT-4 leukemia,17.9 µM
same,TGI,MOLT-4 leukemia,43.1 µM
same,GI50,NCI-H226 lung,19.4 µM
same,TGI,NCI-H226 lung,46 µM
same,GI50,NCI-H23 lung,29.4 µM
same,TGI,NCI-H23 lung,90.9 µM
same,GI50,NCI-H460 lung,17.7 µM
same,TGI,NCI-H460 lung,35 µM
same,GI50,NCI-H522 lung,19.7 µM
same,TGI,NCI-H522 lung,44.4 µM
same,GI50,NCI/ADR-RES ovarian,25.2 µM
same,TGI,NCI/ADR-RES ovarian,68.2 µM
same,GI50,OVCAR-3 ovarian,17.2 µM
same,TGI,OVCAR-3 ovarian,34.6 µM
same,GI50,OVCAR-4 ovarian,21.3 µM
same,TGI,OVCAR-4 ovarian,77.5 µM
same,GI50,OVCAR-5 ovarian,22.9 µM
same,TGI,OVCAR-5 ovarian,48.3 µM
same,GI50,OVCAR-8 ovarian,18.7 µM
same,TGI,OVCAR-8 ovarian,40.4 µM
same,GI50,PC-3 prostate,19 µM
same,TGI,PC-3 prostate,54.9 µM
same,GI50,RPMI-8226 leukemia,15.8 µM
same,TGI,RPMI-8226 leukemia,39.6 µM
same,GI50,RXF 393 renal,15.8 µM
same,TGI,RXF 393 renal,31.8 µM
same,GI50,SF-268 CNS,18.4 µM
same,TGI,SF-268 CNS,36.5 µM
same,GI50,SF-295 CNS,17 µM
same,TGI,SF-295 CNS,34 µM
same,GI50,SF-539 CNS,15.2 µM
same,TGI,SF-539 CNS,30.1 µM
same,GI50,SK-MEL-28 melanoma,17 µM
same,TGI,SK-MEL-28 melanoma,33.9 µM
same,GI50,SK-MEL-5 melanoma,16.6 µM
same,TGI,SK-MEL-5 melanoma,30.6 µM
same,GI50,SK-OV-3 ovarian,27.3 µM
same,TGI,SK-OV-3 ovarian,64.3 µM
same,GI50,SN12C renal,16.2 µM
same,TGI,SN12C renal,33 µM
same,GI50,SNB-19 CNS,24.2 µM
same,TGI,SNB-19 CNS,80.8 µM
same,GI50,SNB-75 CNS,13.7 µM
same,TGI,SNB-75 CNS,33.4 µM
same,GI50,SR leukemia,16.3 µM
same,TGI,SR leukemia,38.3 µM
same,GI50,SW-620 colon,23.9 µM
same,TGI,SW-620 colon,68.7 µM
same,GI50,T-47D breast,17.2 µM
same,TGI,T-47D breast,57.8 µM
same,GI50,TK-10 renal,35.7 µM
same,TGI,TK-10 renal,73.9 µM
same,GI50,UACC-257 melanoma,23.1 µM
same,TGI,UACC-257 melanoma,57.6 µM
same,GI50,UACC-62 melanoma,13.8 µM
same,TGI,UACC-62 melanoma,29.3 µM
same,GI50,UO-31 renal,14.2 µM
same,TGI,UO-31 renal,38.9 µM
